PubChem BioAssay (NCI)
Several values for one entry are separate records, joined by “and”; a condition that tells them apart may be missing. Identical values can stand only once.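 Compound exposure: 48 hours, 5 concentrations, 96-well plates. GI50: concentration for 50% inhibition of growth. The concentration for full growth arrest is given as TGI.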

Experiments:
Experiment in all cases: NCI-60 cell line screen, 48 h
RPMI-8226 leukemia = system: RPMI-8226 leukemia
HCT-15 colon = system: HCT-15 colon
A498 renal = system: A498 renal
NCI-H522 lung = system: NCI-H522 lung
HL-60(TB) leukemia = system: HL-60(TB) leukemia
SW-620 colon = system: SW-620 colon
MOLT-4 leukemia = system: MOLT-4 leukemia
EKVX NSCLC = system: EKVX NSCLC
SNB-75 CNS = system: SNB-75 CNS
OVCAR-4 ovarian = system: OVCAR-4 ovarian

SMILES | TGI (RPMI-8226 leukemia) | TGI (HCT-15 colon) | TGI (A498 renal) | TGI (NCI-H522 lung) | TGI (HL-60(TB) leukemia) | TGI (SW-620 colon) | TGI (MOLT-4 leukemia) | TGI (EKVX NSCLC) | TGI (SNB-75 CNS) | TGI (OVCAR-4 ovarian) | GI50 (RPMI-8226 leukemia) | GI50 (HCT-15 colon) | GI50 (A498 renal) | GI50 (HL-60(TB) leukemia) | GI50 (SW-620 colon) | GI50 (MOLT-4 leukemia) | GI50 (EKVX NSCLC) | GI50 (SNB-75 CNS) | GI50 (OVCAR-4 ovarian) | GI50 (NCI-H522 lung)
Cc1ccc(NC(c2ccccc2)c2ccc3cccnc3c2O)cc1 (stereo unspecified) | 19.2 µM | 14.4 µM | 54.8 µM | 8.53 µM | 11.7 µM | > 52.2 µM | 17.3 µM | 15 µM | 19.2 µM | 16.4 µM |  |  |  |  |  |  |  |  |  | 
Cc1[nH]c(=O)[nH]c(=O)c1N(CCF)CCCl | 515 µM and 838 µM and 1270 µM | 503 µM and 486 µM and 1330 µM | 507 µM and 466 µM and 967 µM | 375 µM and 416 µM and 519 µM | 246 µM and 302 µM and 219 µM | 1100 µM and 805 µM | 254 µM and 393 µM and 563 µM | 443 µM and 762 µM and 1200 µM | 617 µM and 1420 µM and 1010 µM | 461 µM and 755 µM | 161 µM and 190 µM and 122 µM | 182 µM and 310 µM and 186 µM | 247 µM and 311 µM | 42.6 µM | 321 µM and 289 µM and 147 µM | 60.8 µM and 80.6 µM and 43.1 µM | 165 µM and 406 µM and 557 µM | 268 µM and 592 µM and 493 µM | 230 µM | 
CCN(CC)CCCN(c1cc(OC)cc2nccnc12)S(=O)(=O)c1ccc(C)cc1 | > 100 µM | > 100 µM | > 100 µM | > 100 µM | > 100 µM | > 100 µM | > 100 µM | > 100 µM | > 100 µM | > 100 µM |  |  |  |  |  |  |  |  |  | 
CC(C)C[C@@H](NC(=O)[C@@H](Cc1ccccc1)NC(=O)c1cnccn1)B1O[C@H]2[C@H](O)[C@@H](C(=O)NCCCC[C@@H]3NC(=O)[C@@H](Cc4ccccc4)NC(=O)[C@H](CC(=O)O)NC(=O)CNC(=O)[C@H](CCCN=C(N)N)NC3=O)O[C@@H](CN)[C@H]2O1 | 0.267 µM and 1.04 µM | 0.0659 µM and 0.0376 µM | 0.0127 µM and 0.0106 µM | 0.0115 µM and < 0.005 µM | 0.0698 µM and 0.0743 µM | 0.239 µM and 0.652 µM | 0.00931 µM | 0.568 µM and 0.545 µM | 0.0516 µM | 0.451 µM and 1.09 µM | 0.00373 µM and 0.005 µM | 0.0113 µM and 0.00703 µM | 0.00309 µM and 0.005 µM | 0.0102 µM and 0.005 µM | 0.00454 µM and 0.005 µM | 0.00274 µM | 0.0239 µM and 0.0171 µM | 0.0188 µM | 0.00935 µM and 0.005 µM | 0.0033 µM and < 0.005 µM
CN(C)CCCCN1CCc2c(n(C)c3ccccc23)C1=O | 93.2 µM and 64.7 µM | 54.9 µM and 58.3 µM | > 85.1 µM and 49 µM | > 82 µM | > 100 µM | > 81.6 µM and 63.9 µM | > 87.6 µM | 85.9 µM and > 100 µM | 71.3 µM and 60.8 µM | > 100 µM | 61.7 µM and 29.3 µM |  | > 59 µM and 19.9 µM |  |  |  |  |  |  | 
CC(C)(C)NNC(=O)/C(=C/c1ccc(Oc2ccc(Cl)c(Cl)c2)cc1)NC(=O)c1ccccc1 | 45.1 µM | > 100 µM | > 100 µM | > 100 µM | > 100 µM |  | > 100 µM | > 100 µM | > 100 µM | > 100 µM |  |  |  |  |  |  |  |  |  | 
O=C1c2ccccc2-c2c1c1ccccc1c(=O)n2CCCNCCCn1c2c(c3ccccc3c1=O)C(=O)c1ccccc1-2 | 15.9 µM | 3.81 µM | 17.4 µM | > 50 µM | > 50 µM | > 12.5 µM |  | 14.8 µM | > 50 µM | 9.57 µM | 2.58 µM | 1.03 µM | 8.97 µM | > 50 µM | 0.852 µM | 0.398 µM | 3.98 µM | 6.1 µM | 3.2 µM | 13.7 µM
COc1ccc(CN2C(=O)/C(=C\c3cc(OC)c(OC)c(OC)c3)c3cc(OC)ccc32)cc1 | 5.63 µM | 3.42 µM | 4.39 µM | 2.8 µM | > 28.5 µM | 3.41 µM | > 100 µM | > 65.6 µM | 6.62 µM | 27.4 µM | 1.89 µM | 1.66 µM | 1.5 µM | 3.28 µM | 1.82 µM | 4.07 µM | 3.83 µM | 2.17 µM | 3.5 µM | 1.32 µM
N#CC1=C(N)Oc2cc3c(cc2C1c1cccs1)OCO3 (stereo unspecified) | 40.7 µM | > 100 µM | 10.2 µM | 0.639 µM | 0.899 µM | > 100 µM | > 100 µM | > 100 µM | 4.74 µM | > 100 µM | 0.451 µM | 0.486 µM | 0.234 µM | 0.247 µM | 0.356 µM | 0.504 µM | 1.21 µM | 0.367 µM | 4.5 µM | 0.19 µM
CC(C)(C)[OH+][O-].[O-]c1ccc(Cl)cc1C=Nc1ccc(Cl)cc1[O-].[O]=[V] | > 100 µM | > 100 µM | 64.2 µM | 25.1 µM | > 100 µM | 41.7 µM | > 100 µM | 18.1 µM | 30.8 µM |  | 6.97 µM | 21.8 µM | 27.7 µM | 24.7 µM | 19.6 µM | 17.5 µM | 2.84 µM | 12.1 µM |  | 9.12 µM
Cc1ccc(S(=O)(=O)N/N=C(\CCN2CCCC2)CC(c2ccccc2)c2c(O)c3ccccc3oc2=O)cc1 (stereo unspecified) | > 100 µM | > 100 µM | > 100 µM | > 100 µM | > 100 µM | > 100 µM |  | > 100 µM | > 100 µM | > 100 µM |  |  |  |  |  |  |  |  |  | 
